Values quoted from earlier work in patent US10293048B2, “Pharmaceutical compositions comprising boronic acid compounds” (DR. REDDY'S LABORATORIES LIMITED, priority 2012, dated 2019).
Where two headings read alike, the source gives them in different places.

Settings: 1.3 mM in 2% ethyl alcohol/98% normal saline pH 2.8, 25° C., 14 days

- degradation (containing 0.1% of ascorbic acid): 21.8%
- degradation (no ascorbic acid): 5.9%
Compound: CC(C)C[C@H](NC(=O)[C@H](Cc1ccccc1)NC(=O)c1cnccn1)B(O)O [bortezomib, [(1R)-3-methyl-1-[[(2S)-1-oxo-3-phenyl-2-[(pyrazinylcarbonyl)amino]propyl]amino]butyl]boronic acid]
